The values below come from ChEMBL document CHEMBL3785013, “Novel morpholinoquinoline nucleus clubbed with pyrazoline scaffolds: Synthesis, antibacterial, antitubercular and antimalarial activities” (Eur J Med Chem, 2016).

In one series the test system is Streptococcus pneumoniae. The series is described as follows: Antibacterial activity against Streptococcus pneumoniae MTCC 1936 after 24 to 48 hrs by broth microdilution method. In kind it is functional.
For the next series, the system named is Clostridium tetani. The series is described as follows: Antibacterial activity against Clostridium tetani MTCC 449 after 24 to 48 hrs by broth microdilution method. It counts as functional.
For a further series, the system named is Bacillus subtilis. The series is described as follows: Antibacterial activity against Bacillus subtilis MTCC 441 after 24 to 48 hrs by broth microdilution method. It counts as functional. On the technique in general: Broth dilution looks for growth in wells or tubes with falling amounts of substance.
The test system of another series is Salmonella typhi. The series is described as follows: Antibacterial activity against Salmonella typhi MTCC 98 after 24 to 48 hrs by broth microdilution method. In kind it is functional, Salmonella enterica subsp. enterica serovar Typhi. To be noted: Salmonella enterica.
The next series has as its system Vibrio cholerae. The series is described as follows: Antibacterial activity against Vibrio cholerae MTCC 3906 after 24 to 48 hrs by broth microdilution method. In kind it is functional.
For another series, the system named is Escherichia coli. The series is described as follows: Antibacterial activity against Escherichia coli MTCC 443 after 24 to 48 hrs by broth microdilution method. It counts as functional.
A further series deals with Candida albicans. The series is described as follows: Antifungal activity against Candida albicans MTCC 227 after 24 to 48 hrs by broth microdilution method. In kind it is functional.
Another series relates to Aspergillus fumigatus. The series is described as follows: Antifungal activity against Aspergillus fumigatus MTCC 3008 after 24 to 48 hrs by broth microdilution method. In kind it is functional.
Series [1] deals with Mycobacterium tuberculosis. The series is described as follows: Antituberculosis activity against Mycobacterium tuberculosis H37Rv at 250 ug/ml incubated for 24 hrs measured after 2 to 4 weeks by Lowensteine-Jensen method. It counts as functional.
Series [2] deals with Mycobacterium tuberculosis. The series is described as follows: Antituberculosis activity against Mycobacterium tuberculosis H37Rv after 2 to 4 weeks by Lowensteine-Jensen method. In kind it is functional.
For a further series, the system named is Plasmodium falciparum. The series is described as follows: Antimalarial activity against Plasmodium falciparum after 48 hrs. In kind it is functional, organism-based.
Series [3] concerns Schizosaccharomyces pombe. The series is described as follows: Cytotoxicity against Schizosaccharomyces pombe at 2.5 to 12.5 ug/ml after 17 hrs by trypan blue exclusion method. It counts as organism-based. Conditions: in vivo.

≈ marks a conversion by molar mass, not a printed value. A value given as a limit tells only on which side of the number the result lay.

Usually MIC stands for the lowest concentration that inhibits growth of the organism. Higher therefore signals a need for much substance. The term inhibition denotes the drop in the measured response relative to a control, in per cent. Low readings indicate a weak effect, high ones a strong effect. What is called IC50 is the concentration needed to halve the response being measured. A low value points to higher potency.

Regarding `NC(=S)N1N=C(c2ccc(Br)cc2)CC1c1cc2ccccc2nc1N1CCOCC1` (stereo not drawn), the MIC against Streptococcus pneumoniae turned out to be 402 µM (≈ 200 µg/mL); against Clostridium tetani, 201 µM (≈ 99.8 µg/mL); with Bacillus subtilis, 402 µM (≈ 200 µg/mL); with Salmonella typhi, 402 µM (≈ 200 µg/mL); in the series on Vibrio cholerae, 201 µM (≈ 99.8 µg/mL); in the series with Escherichia coli, 201 µM (≈ 99.8 µg/mL). Besides, the MIC was greater than 2010 µM against Candida albicans, 1010 µM (≈ 500 µg/mL) in the series on Aspergillus fumigatus and 201 µM (≈ 99.8 µg/mL) in series [2]. In [1], this compound gave an inhibition at 250 µg/mL of 90%. The IC50 with Plasmodium falciparum turned out to be 44 nM. In addition, the Activity result in series [3] is “Non-toxic”.
Take `O=CN1N=C(c2ccc(Cl)cc2)CC1c1cc2ccccc2nc1N1CCOCC1` (stereo not drawn): the MIC was determined as 148 µM (≈ 62.3 µg/mL) with Streptococcus pneumoniae; 475 µM (≈ 200 µg/mL) in the series with Clostridium tetani; 1190 µM (≈ 500 µg/mL) with Bacillus subtilis; 1190 µM (≈ 500 µg/mL) in the series with Salmonella typhi; 237 µM (≈ 99.8 µg/mL) against Vibrio cholerae; 237 µM (≈ 99.8 µg/mL) in the series with Escherichia coli. Moreover, the MIC in the series on Candida albicans is 2380 µM (≈ 1000 µg/mL); against Aspergillus fumigatus it was greater than 2380 µM; in series [2], 59 µM (≈ 24.8 µg/mL). Moreover, in [1], 250 µg/mL produced 94% inhibition. Besides, in the series with Plasmodium falciparum, the IC50 amounted to 28 nM. Besides, the Activity result in series [3] is given as “Toxic”.
Take `COc1ccc(C2=NN(c3ccc(F)cc3)C(c3cc4ccccc4nc3N3CCOCC3)C2)cc1` (stereo not drawn): the MIC with Streptococcus pneumoniae stood at 259 µM (≈ 125 µg/mL); in the series on Clostridium tetani it was 1040 µM (≈ 500 µg/mL); in the series on Bacillus subtilis, 518 µM (≈ 250 µg/mL); with Salmonella typhi it was 207 µM (≈ 99.9 µg/mL); against Vibrio cholerae, 518 µM (≈ 250 µg/mL); with Escherichia coli, 414 µM (≈ 200 µg/mL). In addition, the minimum inhibitory concentration (MIC) against Candida albicans is 518 µM (≈ 250 µg/mL); in the series with Aspergillus fumigatus, 207 µM (≈ 99.9 µg/mL). This compound displayed an inhibition at 250 µg/mL in series [1] of 33%. The IC50 in the series on Plasmodium falciparum came to 51 nM. In series [3], the Activity result is recorded as “Non-toxic”.
With `O=CN1N=C(c2ccc(Br)cc2)CC1c1cc2ccccc2nc1N1CCOCC1` (stereo not drawn), the MIC with Streptococcus pneumoniae worked out at 537 µM (≈ 250 µg/mL); in the series on Clostridium tetani, 429 µM (≈ 200 µg/mL); against Bacillus subtilis, 214 µM (≈ 99.6 µg/mL); against Salmonella typhi it was 134 µM (≈ 62.4 µg/mL); against Vibrio cholerae, 214 µM (≈ 99.6 µg/mL); in the series with Escherichia coli it was 214 µM (≈ 99.6 µg/mL). Also, the MIC in the series on Candida albicans was 537 µM (≈ 250 µg/mL); against Aspergillus fumigatus, 1070 µM (≈ 500 µg/mL). In series [1], this compound displayed an inhibition at 250 µg/mL of 32%. In the series with Plasmodium falciparum, the IC50 stood at 40 nM. Also, the Activity entry in series [3] is “Non-toxic”.
Take `Fc1ccc(N2N=C(c3ccc(Br)cc3)CC2c2cc3ccccc3nc2N2CCOCC2)cc1` (stereo not drawn): the MIC with Streptococcus pneumoniae came to 188 µM (≈ 99.9 µg/mL); with Clostridium tetani it was 188 µM (≈ 99.9 µg/mL); with Bacillus subtilis it was 940 µM (≈ 500 µg/mL); in the series with Salmonella typhi, 376 µM (≈ 200 µg/mL); in the series with Vibrio cholerae, 470 µM (≈ 250 µg/mL); against Escherichia coli, 117 µM (≈ 62.2 µg/mL). The MIC came out at 470 µM (≈ 250 µg/mL) with Candida albicans, 940 µM (≈ 500 µg/mL) against Aspergillus fumigatus and 47 µM (≈ 25 µg/mL) in [2]. In addition, 250 µg/mL produced 95% inhibition in [1]. In the series with Plasmodium falciparum, this compound registered an IC50 of 15 nM. For the same compound, the Activity entry in series [3] is on record as “Non-toxic”.
